Source: patent US10829473B2, “Modulators of the cystic fibrosis transmembrane conductance regulator protein and methods of use” (AbbVie Overseas S.Á.R.L., priority 2017, dated 2020)
Like-named read-outs stand apart in the source and are kept apart here.

Target: T1, F508delCFTR (Homo sapiens, UniProt P13569, DEL508-508)
T1 construct: expressed in transfected cells; host or cells: CFBE41o- human lung derived epithelial cells (CFBE41o-F508delCFTR-HRP), doxycycline-inducible
Assay: Cell Surface Expression-Horse Radish Peroxidase (CSE-HRP) Assay;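 as to EC50 (with co-corrector): co-corrector chromenyl benzoic acid corrector at 2 or 3 µM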;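 as to Maximum % activity (without co-corrector): % of on-plate positive control chromenyl benzoic acid corrector at 2 or 3 µM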
Type: cell-based
Settings: for Maximum % activity (with co-corrector) / Emax: maximum at any tested concentration; for Emax: read-out: Maximum % activity (without co-corrector)
Method in brief: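 Corrector compounds were given as 8-point 3-fold series from 20 or 30 μM, with or without a 2 μM co-corrector, for 18-24 h at 33 °C. Surface HRP was read by luminol luminescence as % of positive control; variable-Hill-slope sigmoidal fitting gave EC50 from triplicate plates.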

[1] = test compound alone, without co-corrector, read-out: EC50 (without co-corrector)
[2] = with co-corrector, read-out: EC50 (with co-corrector)
[3] = test compound with co-corrector
[4] = test compound with co-corrector, read-out: EC50 (with co-corrector)
[5] = test compound without co-corrector
[6] = test compound without co-corrector, read-out: EC50 (without co-corrector)

T1 sequence (P13569 with tags, fused parts or gaps DEL508-508): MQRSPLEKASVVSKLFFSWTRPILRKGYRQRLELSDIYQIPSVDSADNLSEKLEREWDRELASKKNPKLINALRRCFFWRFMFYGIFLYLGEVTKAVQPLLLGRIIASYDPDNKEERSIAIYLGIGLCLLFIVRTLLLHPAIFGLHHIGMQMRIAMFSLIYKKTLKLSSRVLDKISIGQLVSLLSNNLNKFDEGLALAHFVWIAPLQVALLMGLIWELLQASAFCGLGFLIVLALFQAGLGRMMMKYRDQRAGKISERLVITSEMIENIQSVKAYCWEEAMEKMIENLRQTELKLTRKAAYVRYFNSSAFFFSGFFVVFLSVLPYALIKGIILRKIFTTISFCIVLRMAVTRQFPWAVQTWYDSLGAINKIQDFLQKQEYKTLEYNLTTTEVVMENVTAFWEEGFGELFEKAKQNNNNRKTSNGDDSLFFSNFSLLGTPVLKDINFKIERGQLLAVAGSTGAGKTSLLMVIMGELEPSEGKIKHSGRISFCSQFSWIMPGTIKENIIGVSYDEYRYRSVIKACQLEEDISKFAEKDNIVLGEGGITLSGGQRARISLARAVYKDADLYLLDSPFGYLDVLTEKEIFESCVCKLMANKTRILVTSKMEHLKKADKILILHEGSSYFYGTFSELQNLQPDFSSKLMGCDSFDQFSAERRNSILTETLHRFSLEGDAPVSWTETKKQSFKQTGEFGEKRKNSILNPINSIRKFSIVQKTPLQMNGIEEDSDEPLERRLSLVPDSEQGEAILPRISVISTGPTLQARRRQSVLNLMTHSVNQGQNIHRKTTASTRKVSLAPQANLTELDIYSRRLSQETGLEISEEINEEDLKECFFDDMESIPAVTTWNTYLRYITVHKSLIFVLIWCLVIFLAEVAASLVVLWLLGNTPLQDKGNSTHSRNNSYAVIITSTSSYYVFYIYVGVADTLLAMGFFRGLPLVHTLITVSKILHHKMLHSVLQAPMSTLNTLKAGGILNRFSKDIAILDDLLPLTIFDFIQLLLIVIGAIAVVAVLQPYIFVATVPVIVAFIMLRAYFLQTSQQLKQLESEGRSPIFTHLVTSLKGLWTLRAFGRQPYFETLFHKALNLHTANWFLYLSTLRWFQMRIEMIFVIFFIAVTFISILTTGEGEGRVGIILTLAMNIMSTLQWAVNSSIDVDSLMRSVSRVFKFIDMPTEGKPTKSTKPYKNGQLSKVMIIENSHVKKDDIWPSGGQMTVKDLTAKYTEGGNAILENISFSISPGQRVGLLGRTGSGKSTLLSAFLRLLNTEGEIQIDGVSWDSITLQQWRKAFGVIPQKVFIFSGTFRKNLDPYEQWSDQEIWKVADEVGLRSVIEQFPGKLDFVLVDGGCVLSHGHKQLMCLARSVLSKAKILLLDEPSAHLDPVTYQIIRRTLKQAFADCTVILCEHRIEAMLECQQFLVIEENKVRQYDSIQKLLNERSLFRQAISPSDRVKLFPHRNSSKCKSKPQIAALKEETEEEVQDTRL

Row | Structure (SMILES) | EC50 [1] [µM] | Maximum % activity (with co-corrector) (with co-corrector) | EC50 [2] [µM] | Emax (without co-corrector) [%] | Maximum % activity (with co-corrector) [3] | EC50 [4] [µM] | Emax [5] [%] | EC50 [6] [µM]
1 | COCC1(c2ccc(OC)c(C3(C(=O)NS(=O)(=O)c4cccc5nc(C)ccc45)CC3)c2)CC1 [Example I-74, 1-{2-methoxy-5-[1-(methoxymethyl)cyclopropyl]phenyl}-N-(2-methylquinoline-5-sulfonyl)cyclopropane-1-carboxamide] | < 3 | +++ (≥350) | < 3 | > 150 | – | – | – | –
2 | Cc1cnc(OCC2CC2)c(C2(C(=O)NS(=O)(=O)c3cccc4nc(C)ccc34)CC2)c1 [Example GI-101, 1-[2-(cyclopropylmethoxy)-5-methylpyridin-3-yl]-N-(2-methylquinoline-5-sulfonyl)cyclopropane-1-carboxamide] | – | – | – | – | +++ (≥350) | < 3 | > 150 | 3 to 10
3 | CCc1cnc(OCC(C)C)c(C2(C(=O)NS(=O)(=O)c3cccc4[nH]ccc34)CC2)c1 [Example GI-47, 1-[5-ethyl-2-(2-methylpropoxy)pyridin-3-yl]-N-(1H-indole-4-sulfonyl)cyclopropane-1-carboxamide] | – | – | – | – | +++ (≥350) | < 3 | > 150 | < 3
4 | CC(C)Oc1ncc(N2CCC2)cc1C1(C(=O)NS(=O)(=O)c2cccc3ncccc23)CC1 [Example GI-83, 1-{5-(azetidin-1-yl)-2-[(propan-2-yl)oxy]pyridin-3-yl}-N-(quinoline-5-sulfonyl)cyclopropane-1-carboxamide] | – | – | – | – | +++ (≥350) | < 3 | > 150 | 3 to 10
5 | Cc1ccc2c(S(=O)(=O)NC(=O)C3(c4cc(N(C)C)cnc4OCC(C)C)CC3)cccc2n1 [Example I-109, 1-[5-(dimethylamino)-2-(2-methylpropoxy)pyridin-3-yl]-N-(2-methylquinoline-5-sulfonyl)cyclopropane-1-carboxamide] | < 3 | +++ (≥350) | < 3 | > 150 | – | – | – | –
6 | COc1cccc(C2CCC2)c1C1(C(=O)NS(=O)(=O)c2cccc3ncccc23)CC1 [Example I-51, 1-(2-cyclobutyl-6-methoxyphenyl)-N-(quinoline-5-sulfonyl)cyclopropane-1-carboxamide] | < 3 | +++ (≥350) | < 3 | > 150 | – | – | – | –
7 | O=C(NS(=O)(=O)c1cccc2ccccc12)C1(c2ccc(C(F)(F)F)nc2C2CCC2)CC1 [Example GI-11, 1-[2-cyclobutyl-6-(trifluoromethyl)pyridin-3-yl]-N-(naphthalene-1-sulfonyl)cyclopropane-1-carboxamide] | < 3 | +++ (≥350) | < 3 | > 150 | – | – | – | –
8 | Cc1cnc(OCC2CC2)c(C2(C(=O)NS(=O)(=O)c3cccc4[nH]ccc34)CC2)c1 [Example GI-97, 1-[2-(cyclopropylmethoxy)-5-methylpyridin-3-yl]-N-(1H-indole-4-sulfonyl)cyclopropane-1-carboxamide] | – | – | – | – | +++ (≥350) | < 3 | > 150 | < 3
9 | CC(C)Oc1ncc(Br)cc1C1(C(=O)NS(=O)(=O)c2cccc3c2CCCN3)CC1 [Example GI-2, 1-{5-bromo-2-[(propan-2-yl)oxy]pyridin-3-yl}-N-(1,2,3,4-tetrahydroquinoline-5-sulfonyl)cyclopropane-1-carboxamide] | < 3 | +++ (≥350) | < 3 | > 150 | – | – | – | –
10 | O=C(NS(=O)(=O)c1cccc2c1CCCN2)C1(c2cc(C3CCC3)cnc2N2CCCC2)CC1 [Example GI-31, 1-[5-cyclobutyl-2-(pyrrolidin-1-yl)pyridin-3-yl]-N-(1,2,3,4-tetrahydroquinoline-5-sulfonyl)cyclopropane-1-carboxamide] | – | – | – | – | +++ (≥350) | < 3 | > 150 | < 3
11 | COc1ccc(C)c(OC)c1C1(C(=O)NS(=O)(=O)c2cccc3[nH]ccc23)CC1 [Example I-42, 1-(2,6-dimethoxy-3-methylphenyl)-N-(1H-indole-4-sulfonyl)cyclopropane-1-carboxamide] | < 3 | +++ (≥350) | < 3 | > 150 | – | – | – | –

Now from value to compound:

Row | EC50 [1] [µM] | Maximum % activity (with co-corrector) (with co-corrector) | EC50 [2] [µM] | Emax (without co-corrector) [%] | Maximum % activity (with co-corrector) [3] | EC50 [4] [µM] | Emax [5] [%] | EC50 [6] [µM] | Structure (SMILES)
12 | > 10 | ++ (≥150 and <350) | 3 to 10 | < 50 | – | – | – | – | Cc1ccc(S(=O)(=O)NC(=O)C2(c3ccc(Cl)cc3Cl)CC2)cc1 [Example III-37, 1-(2,4-dichlorophenyl)-N-(4-methylbenzene-1-sulfonyl)cyclopropane-1-carboxamide]
13 | 3 to 10 | +++ (≥350) | < 3 | > 150 | – | – | – | – | COc1ccc(C2(OC)CCC2)cc1C1(C(=O)NS(=O)(=O)c2cccc3nc(C)ccc23)CC1 [II-100]
14 | 3 to 10 | +++ (≥350) | < 3 | 50 to 150 | – | – | – | – | COc1ncc(C2CCC2)c(C)c1C1(C(=O)NS(=O)(=O)c2cccc3c2ccn3C)CC1 [II-41]
15 | – | – | – | – | ++ (≥150 and <350) | 3 to 10 | 50 to 150 | 3 to 10 | CC(C)Oc1ncccc1C1(C(=O)NS(=O)(=O)c2cccc3ncccc23)CC1 [GII-3, 1-{2-[(propan-2-yl)oxy]pyridin-3-yl}-N-(quinoline-5-sulfonyl)cyclopropane-1-carboxamide]
16 | 3 to 10 | ++ (≥150 and <350) | 3 to 10 | < 50 | – | – | – | – | O=C(NS(=O)(=O)c1ccccc1)C1(c2ccccc2Cl)CC1 [Example III-32, N-(benzenesulfonyl)-1-(2-chlorophenyl)cyclopropane-1-carboxamide]
17 | < 3 | +++ (≥350) | < 3 | 50 to 150 | – | – | – | – | COc1ccc(C)c(OC)c1C1(C(=O)NS(=O)(=O)c2cccc3ccc(C)nc23)CC1 [II-39]
18 | – | – | – | – | +++ (≥350) | 3 to 10 | > 150 | 3 to 10 | Cc1cnc(N2CCCC2)c(C2(C(=O)NS(=O)(=O)c3cccc4[nH]ccc34)CC2)c1 [GII-37, N-(1H-indole-4-sulfonyl)-1-[5-methyl-2-(pyrrolidin-1-yl)pyridin-3-yl]cyclopropane-1-carboxamide]
19 | – | – | – | – | + (<150) | > 10 | < 50 | > 10 | Cc1cnc(F)cc1C1(C(=O)NS(=O)(=O)c2cccc3ncccc23)CC1 [GIII-16]
20 | – | – | – | – | ++ (≥150 and <350) | 3 to 10 | 50 to 150 | 3 to 10 | Cc1cnc(C2(C(=O)NS(=O)(=O)c3cccc4[nH]ccc34)CC2)c(C2CC2)c1 [GII-39, 1-(3-cyclopropyl-5-methylpyridin-2-yl)-N-(1H-indole-4-sulfonyl)cyclopropane-1-carboxamide]
21 | > 10 | + (<150) | > 10 | < 50 | – | – | – | – | CC(C)Oc1ccc(S(=O)(=O)NC(=O)C2(c3ccc(Cl)cc3Cl)CC2)cc1 [Example III-20, 1-(2,4-dichlorophenyl)-N-{4-[(propan-2-yl)oxy]benzene-1-sulfonyl}cyclopropane-1-carboxamide]
22 | > 10 | ++ (≥150 and <350) | 3 to 10 | < 50 | – | – | – | – | CC1(C)CC1(C(=O)NS(=O)(=O)c1ccccc1)c1ccccc1 (centres unmarked) [Example III-61, N-(benzenesulfonyl)-2,2-dimethyl-1-phenylcyclopropane-1-carboxamide]
23 | < 3 | +++ (≥350) | < 3 | > 150 | – | – | – | – | COCc1ccc(OC)c(C2(C(=O)NS(=O)(=O)c3cccc4ncccc34)CC2)c1 [II-49]
24 | – | – | – | – | +++ (≥350) | 3 to 10 | > 150 | 3 to 10 | COc1nc(C(F)(F)F)ccc1C1(C(=O)NS(=O)(=O)c2cccc3ncccc23)CC1 [GII-10, 1-[2-methoxy-6-(trifluoromethyl)pyridin-3-yl]-N-(quinoline-5-sulfonyl)cyclopropane-1-carboxamide]
25 | > 10 | + (<150) | > 10 | < 50 | – | – | – | – | COc1ccc(C2(C(=O)NS(=O)(=O)c3ccccc3)CC2)cc1 [Example III-5, N-(benzenesulfonyl)-1-(4-methoxyphenyl)cyclopropane-1-carboxamide]
26 | > 10 | ++ (≥150 and <350) | 3 to 10 | < 50 | – | – | – | – | COC(=O)c1ccc(Cl)cc1S(=O)(=O)NC(=O)C1(c2ccc(Cl)cc2Cl)CC1 [Example III-66, methyl 4-chloro-2-{[l-(2,4-dichlorophenyl)cyclopropane-1-carbonyl]sulfamoyl}benzoate]
27 | < 3 | +++ (≥350) | < 3 | > 150 | – | – | – | – | COc1cc(C2CCC2)cc(OC)c1C1(C(=O)NS(=O)(=O)c2cccc3nc(C)ccc23)CC1 [II-69]
28 | 3 to 10 | +++ (≥350) | < 3 | > 150 | – | – | – | – | COc1ncc(C(F)(F)F)cc1C1(C(=O)NS(=O)(=O)c2cccc3ncccc23)CC1 [II-7]
29 | 3 to 10 | +++ (≥350) | 3 to 10 | 50 to 150 | – | – | – | – | COc1ccccc1C1(C(=O)NS(=O)(=O)c2ccccc2C)CC1 [Example III-85, 1-(2-methoxyphenyl)-N-(2-methylbenzene-1-sulfonyl)cyclopropane-1-carboxamide]
